Data on nine molecules can be found in patent US8536157B2, “Non-steroidal compounds” (The University of Melbourne, priority 2007, dated 2013).

Data set [1] addresses proteins in rat lung membranes. As to the kind of experiment: Competitive binding assay with [3H]-CP2117 on rat lung membranes (RLM). The following applies: given as Log IC50 (negative values); displacement of 10 nM [3H]-CP2117, overnight at 4° C.; ND- not detected.
Data set [2] concerns PGE2 release in U937 cells. As to the kind of experiment: PGE2 release from PMA-treated U937 cells (radioimmunoassay). Format: cell-based, human. The settings on record: Homo sapiens, U-937, 24 h, 24 hour incubation, read-out: Effects on PGE2 release in U937 cells at 1 μM as a % of PMA control, mean. As for the experimental part: The U937 monocytic cell line (available from the ATCC, USA) is commonly used to evaluate anti-inflammatory agents. In the present experiment, U937 cells maintained in culture in a medium comprising RPMI containing (5% FCS v/v; supplemented with 100 U/ml penicillin, and […] streptomycin) were treated with phorbol myristate acetate (10 nM) then immediately dispersed into a 24 well cell culture plate at a concentration of 2×10^5 cells per ml in a volume of 1 ml per well. After 24 hours by which time the cells had adhered to the plastic substrate, they were treated with one of several analogues or with the vehicle of 0.1% DMSO. After a further 24 hour incubation period the supernatant was harvested and the content of prostaglandin E2 was measured by a radioimmunoassay, as described by Vlahos, R., & Stewart, A. G. (1999). (“Interleukin-1α and Tumour necrosis factor-α inhibit airway smooth muscle DNA synthesis by a glucocorticoid-sensitive induction of cyclo-oxygenase-2. British Journal of Pharmacology, 126, 1315-1324). […] The data in the table are presented as percentage of the control level of Prostaglandin E2.
Several analogues were evaluated for their actions on the release of PGE2 from the human U937macrophage cell line. Cells were stimulated by exposure to PMA 1 nM and after a period allowed for adherence of cells to the plastic culture dish, the cell were treated with one of several CP analogues. […] The chemical structures of CP1-56 and CP1-58 are as follows: […]

For data set [3], the system named is human airway smooth muscle (HASM) cells. As to the kind of experiment: Proliferation of human airway smooth muscle cells in response to thrombin (cell counting). The settings on record: given as Log IC50 (negative values), thrombin 0.3 U/ml, 48 h, compound pre-incubated 30 minutes. Format: cell-based. An excerpt:
(§1) 3. Effects of Compounds on the Proliferation of Cells in Response to the Proliferative Stimulus of Either Thrombin (Human Airway Smooth Muscle) or Basic Fibroblast Growth Factor (bFGF)(Human Lung Parenchymal Fibroblasts, pFb)
(§2) The effects of compounds of the present invention on the proliferation of cells in response to the proliferative stimulus of either thrombin (human airway smooth muscle) or basic fibroblast growth factor (bFGF)(human lung parenchymal fibroblasts, pFb) were investigated. Cells were seeded onto 6-well plates at a density of 1.5×10^4 cells cm^2, made quiescent by removal of serum-containing media for 24 hours and then stimulated for 48 h with either thrombin (0.3 U/ml) or bFGF (300 pM). The test compounds were pre-incubated with HASM or pFb cells for 30 minutes before the addition of thrombin. At the end of the 48 hour incubation period, cells were detached from the culture plate by trypsin (0.5% w/v in PBS containing 1 mM EDTA), incubated for 5 minutes at ambient temperature in PBS containing 0.5% (w/v) trypan blue, washed twice (2% FCS in PBS), isolated by centrifugation (12,000×g, 5 min) and resuspended in 200 μl 2% FCS in PBS for counting in a haemocytometer chamber.
Human airway smooth muscle (HASM) cells were cultured from macroscopically normal bronchi (0.5-2 cm diameter) obtained from lung resection or heart-lung transplant specimens provided by the Alfred Hospital (Melbourne) according to methods published in detail previously (Fernandes et al., 1999).
Approximately 0.1 g of smooth muscle was stripped from the wall of the bronchus for each cell culture. Dissected tissue was immersed in Dulbecco's modified Eagle's medium (DMEM) (Flow Laboratories, Scotland), supplemented with 100 U/mL penicillin G (CSL, Australia) and 100 μg/mL streptomycin (CSL, Australia). The tissue was rinsed in phosphate buffered saline (PBS; Oxoid, England) and the airway smooth muscle was chopped into 2 mm^3 pieces and digested for 2 hours in DMEM containing elastase (0.5 mg/mL: Worthington Biochemical, USA) followed by a 12 hour incubation in DMEM containing collagenase (1 mg/mL) (Worthington Biochemical, USA), at 37° C. with agitation.
The resulting cell suspension was centrifuged and washed three times in phosphate buffered saline (PBS). Following the last centrifugation step, the cells were resuspended in 25 mL of DMEM supplemented with L-glutamine (2 mM: Sigma, USA), penicillin G (100 U/mL), streptomycin (100 μg/mL), amphotericin B (2 μg/mL: Wellcome, UK) and heat-inactivated FCS (10% v/v: CSL, Australia) and seeded into 25 cm^2 culture flasks. The primary isolates were incubated for 7 to 14 days to reach confluence. […]

Data set [4] has as its system human lung parenchymal fibroblasts, pFb. As to the kind of experiment: Proliferation of human lung parenchymal fibroblasts in response to bFGF (cell counting). The following applies: Fibroblast, given as Log IC50 (negative values), bFGF 300 pM, 48 h. Format: cell-based.
Source text: as §1
as §2, with “chamber. […]” for “chamber.”

Data set [5] deals with PGE2 release in J774 macrophages. Description: PGE2 release from LPS/IFNγ-stimulated J774 macrophages (radioimmunoassay). Format: cell-based, murine. The settings on record: Mus musculus, J774, 24 h, 30 min pre-treatment, 24 hour incubation; for activity at 1 µM: read-out: Effects on PGE2 release in J774 macrophages at 1 μM as a % of LPS/IFNγ control, mean; for activity at 10 µM: l0 μM, read-out: Effects on PGE2 release in J774 macrophages at l0 μM as a % of LPS/IFNγ control, mean.

Data set [6] concerns LPS-induced pulmonary inflammation in mice. Description: Model of pulmonary inflammation induced by intra-nasal delivery of LPS. The settings on record: CP933 150 mg/kg ip, dexamethasone 1 mg/kg ip, 2 hours after intranasal LPS. Format: in vivo.
Description: The effect of the compounds of the present invention on BAL cell number, total BAL protein and inflammatory gene expression may be analysed. As an example, female Balb/c mice (17-21 g) may be given a single intraperitoneal (i.p.) injection of vehicle or CP92 (150, 50, 15 and 5 mg/kg in peanut oil DMSO). Two hours after the mice would be anaesthetised with methoxyflurane and a droplet of LPS (1 μg in saline) or sterile saline would be applied to the nose. As the animals breathe through their nose, the LPS or saline would be inhaled and gain access to the lung tissue. Twenty four hours post-LPS administration, mice would be euthanized with a mixture of 200 μl ketamine and 10 μl xylazine i.p., tracheotomised and bronchoalveolar lavage (BAL) performed for the assessment of cell number, cell type and protein content. The lungs would be removed and weighed as an indicator of any adverse effects of the drug treatment. Total RNA would be isolated from the lung tissues for analysis of gene expression (mRNA) using RT-PCR.
The conditions of data set [7]: see WO 2004/101595; cited from earlier work.

As for `Brc1cc2c(cc1/C=N/OCc1ccccc1)OCO2` [Compound 10-OK-07a], the “Log IC50 RLM binding” value in data set [1] is on record as −4.76. Moreover, the activity at 1 µM in data set [2] turned out to be 114%.

`COc1ccc(/C(C)=N/OCc2ccc([N+](=O)[O-])cc2)cc1O` [CP30218, (E)-3′-Hydroxy-4′-methoxyacetophenone O-4-Nitrobenzyl Oxime] yielded a melting point of 105 to 105.7 °C. This molecule also had an IC50 in data set [3] of 5890 nM. The molecule also gave a concentration for half-maximal inhibition (IC50) in data set [4] of 6.61 nM. Also, in data set [5], the activity at 1 µM turned out to be 218% and the activity at 10 µM was determined as 188%. The “Log IC50 RLM binding” value in data set [1] is listed as −6.44.

In turn, `COc1cc(I)c(C(C)=NOCc2ccc([N+](=O)[O-])cc2)cc1O` [CP30220-minor (Z-), 5′-Hydroxy-2′-iodo-4′-methoxyacetophenone O-4-Nitrobenzyl Oxime] showed an IC50 in data set [3] of 38.9 nM. This counts as double-digit nanomolar.

For `COc1ccc(/C(C)=N/OCc2ccc3nonc3c2)cc1O` [CP933, 1-(3-hydroxy-4-methoxyphenyl)ethanone-O-[(benzo[c][1,2,5]oxadiazol-5-yl)methyl]oxime], in data set [6] (FIG. 1A), the “Airspace (pulmonary) neutrophilia” value is “attenuated the airspace neutrophilia”. In addition, in data set [6] (FIG. 1B), the “Protein in the broncho-alveolar lavage (BAL) fluid” value is reported as “reduced accumulation of protein”. Also, in data set [5], the activity at 1 µM worked out at 109% and the activity at 10 µM was 87%. In addition, the “Log IC50 RLM binding” value in data set [1] is recorded as −6.185.

In data set [3], `CCC(=NOCc1ccc([N+](=O)[O-])cc1)c1cc(O)c(OC)cc1I` [CP30222, 5′-Hydroxy-2′-iodo-4′-methoxypropiophenone O-4-Nitrobenzyl Oxime] had a half-inhibitory concentration (IC50) of 8.32 nM.

Regarding `CCC(=NOCc1ccc([N+](=O)[O-])cc1)c1ccc(OC)c(O)c1` [CP30221, 3′-Hydroxy-4′-methoxypropiophenone O-4-Nitrobenzyl Oxime], in data set [3], the 50% inhibitory concentration (IC50) was 2880 nM.

As to `COc1cc2c(cc1O)C(=NOCc1ccc([N+](=O)[O-])cc1)C[C@@H]1[C@@H]2CC[C@]2(C)[C@@H](O)CC[C@@H]12` [CP-2117, 2-methoxy-6-(4-nitrobenzyloxyimino)estradiol], the “anti-inflammatory activity in vitro” value in data set [7] is listed as “anti-inflammatory activity”.

As for `COc1cc2c(cc1OS(N)(=O)=O)C(=NOCc1ccc([N+](=O)[O-])cc1)C(C)(C)CC2` [AA-1-79], the “Log IC50 RLM binding” value in data set [1] is on record as −4.58. The activity at 1 µM in data set [2] turned out to be 113%.

With `COc1cc(/C(C)=N/OCc2ccc3nonc3c2)ccc1O` [AA-1-56], in data set [1], the “Log IC50 RLM binding” value is given as −6.21. The activity at 1 µM in data set [2] amounted to 16%.
